Measured values as given in patent US10975123B2, “Mutant Akt-specific capture agents, compositions, and methods of using and making” (California Institute of Technology, priority 2014, dated 2021).
Positions count from the first letter of the chain named. Entries after “also recorded” stand apart in the source; their conditions may differ. Where a SMILES comes first, the peptide text is derived from it. [ ]: non-standard residue; d: D form.

Columns and labels:
Assay type in all cases: binding
[1] = target: T1, E17K 33-mer fragment (6His-tagged) (Homo sapiens, UniProt P31749, E17K/H13K); experiment: HPLC-detected immunoprecipitation (pulldown), E17K 33-mer; settings: 50 μM epitope, overnight 4° C., guanidine elution, in words
T1 construct: made in house; host or cells: chemical synthesis (Fmoc SPPS)
T1 sequence (P31749 1-33 H13K/E17K limits assumed): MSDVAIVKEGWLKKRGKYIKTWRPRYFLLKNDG
Description: (§1) The label-modified yleaf (SEQ ID NO: 43) peptide (FIG. 2a and FIG. 12) was subjected to a variety of binding assays against the synthesized WT and E17K 33-mer PHD fragments prepared without the biotin label and alkyne click handle. First, the yleaf (SEQ ID NO: 43) peptide was used in immunoprecipitation assays to pull-down either the WT or E17K mutant 6His-tagged (SEQ ID NO: 4) 33-mer peptide fragments (FIGS. 13 and 14), as opposed to the full-length proteins that were used to initially validate the candidates. Typical immunoprecipitation assays involve western blotting to estimate the amount of protein binding, but 33-mer peptide fragments are not easily quantified on a blot. Because of this, the amount of peptide epitope precipitated in these assays was quantified via injection on an analytical HPLC. These assays further confirmed preferential yleaf (SEQ ID NO: 43) ligand binding to the E17K 33-mer epitope relative to the WT epitope (FIG. 15).
(§2) Pulldown assays with the biotinylated anchor and his-tagged 33-mer epitope were performed to verify epitope targeting. […] Because small peptide fragments like the 33-mer epitope are difficult to transfer to and detect on the nitrocellulose membrane as for a traditional Western blot, the amount of binding in these assays was detected via HPLC. […]

[2] = target: T2, WT 33-mer fragment (6His-tagged) (Homo sapiens, UniProt P31749, H13K); experiment: HPLC-detected immunoprecipitation (pulldown), WT 33-mer; settings: 50 μM epitope, overnight 4° C., guanidine elution, in words
T2 construct: made in house; host or cells: chemical synthesis (Fmoc SPPS)
T2 sequence (P31749 1-33 H13K limits assumed): T1 sequence (P31749 1-33 H13K/E17K limits assumed) with K17E
Description: as §1, §2

[3] = tested on: E17K 33-mer epitope vs WT 33-mer epitope (6His-tagged); experiment: Point ELISA with anchor ligand and 33-mer epitope; settings: PEG-biotin-modified yleaf on neutravidin plate; epitope 100 nM-1 μM, in words
Procedure: The selectivity of the yleaf (SEQ ID NO: 43) peptide for the E17K 33-mer epitope was also tested in an ELISA assay format. For these assays, the WT or E17K 33-mer peptide fragments were captured using the PEG-biotin-modified yleaf (SEQ ID NO: 43) ligand immobilized on a neutravidin-coated plate.
For these assays, 100 nM Biotin-PEG5-yleaf (SEQ ID NO: 43) (FIG. 12) was immobilized for one hour on a neutravidin-coated ELISA plate (Pierce). The plate was blocked in 5% BSA in 1×TBS for one hour, then again overnight at room temperature. The immobilized anchor was then incubated with either 1 μM or 100 nM wildtype 33-mer epitope or 1 μM or 100 nM E17K mutant 33-mer epitope for one hour. The plate was washed three times with 1×TBS+0.1% Tween-20 and tapped dry. The epitope was then detected by a 1:1,000 dilution of an anti-his mouse mAb (ab18184, Abcam) for one hour, washed as above, and then detected with 1:10,000 dilution of an anti-mouse HRP-conjugated goat pAb (Abcam) for one hour. The plate was once again washed and developed with a 1:1 TMB substrate (KMB) for 15 minutes. To graph the data, the blank (epitope and antibodies binding to plate with no anchor ligand present) was subtracted from the triplicate sample values. […] The triplicate values were then graphed (FIG. 1C) with their error bars and the p-values were calculated by GraphPad.

With `CC(C)C[C@@H](NC(=O)[C@H](N)Cc1ccc(O)cc1)C(=O)N[C@H](CCC(=O)O)C(=O)N[C@H](C)C(=O)N[C@H](Cc1ccccc1)C(N)=O` [yleaf] (H-[dY][dL][dE][dA][dF]-NH2; N-terminus assumed) the “amount of E17K 33-mer fragment pulled down (HPLC peak)” value [1] was “preferential; also recorded: pulls down the most of the E17K 33mer fragment”, the “amount of WT 33-mer fragment pulled down (HPLC peak)” value [2] was “the least of the WT fragment” and the “selectivity for E17K 33-mer fragment over WT in point ELISA” value [3] was “significant selectivity for the E17K fragment over the WT”.
